One data set in a line: in vitro. It counts as in vitro ADME. The settings on record: plasma. As to the method: To determine binding to plasma proteins, BCY18469 was labeled with ^68Ga (apparent molar activity 1 GBq/µmol). Thereafter, 10 µL of the labeling mixture were added to 100 µL of mouse or human plasma (mouse: BioIVT, United Kingdom, human: Sigma Aldrich, Germany). The mixture was left for 15 min at room temperature. Afterwards, the plasma was loaded into an ultrafiltration device (Amicon Ultra 0.5ml - 30 kDa, Merck, Germany) and centrifuged at 14,000 rpm for 30 min at r.t. The filtrate and the membrane were measured in a gamma counter (Wizard2, Perkin Elmer, Germany). The amount of plasma-bound compound was calculated based on the counts in the […] relative to the total counts (filtrate + membrane).

Another data set in a line: in vivo. Particulars: male, CD-1 (ICR), mouse, iv, 1 mg/kg.
The target in a further data set is Human EphA4 (Homo sapiens, UniProt P54764). In words: SPR homologue panel, EphA4. Particulars: human EphA4, n=1; read-out: KD, no binding up to.
The conditions of data set [1]: male, CD-1 (ICR), mouse, in vivo, iv, 1 mg/kg.
Description: (§3) In vivo pharmacokinetic studies were conducted in male CD-1 (ICR) mice, 7-9 weeks of age. […] Serial venous blood samples were taken at 5 min, 15 min, 30 min, 45 min, 1 h, 2 h and 4 h post injection. Samples were immediately transferred into low-binding microcentrifuge tubes containing 2 μL K2-EDTA (0.5 M) as anti-coagulant and kept on ice until processed by centrifugation at 4°C, 3200 g for 10 min. The resulting plasma was transferred into low-binding tubes and the protein precipitated by addition of methanol containing 0.5% Triton X-100 and internal standards (100 ng/mL each of labetalol, tolbutamide, verapamil, dexamethasone, glyburide and celecoxib). Samples were centrifuged at 4°C, 12000 g for 15 min and the supernatant removed, frozen over dry ice and stored at -70°C until LC-MS/MS analysis (Supplementary Materials - Methods). A calibration curve and quality control samples were prepared in the same matrix. Pharmacokinetic parameters were derived from noncompartmental analysis using the intravenous-noncompartmental model 201 (IV bolus input) in Phoenix WinNonlin version 8.3.5 (Certara, USA).
For the next data set, the target named is T1, Human EphA1 (Homo sapiens, UniProt P21709).
T1 construct: purchased Sino Biological 15789-H02H
T1 sequence (P21709 26-547 limits assumed): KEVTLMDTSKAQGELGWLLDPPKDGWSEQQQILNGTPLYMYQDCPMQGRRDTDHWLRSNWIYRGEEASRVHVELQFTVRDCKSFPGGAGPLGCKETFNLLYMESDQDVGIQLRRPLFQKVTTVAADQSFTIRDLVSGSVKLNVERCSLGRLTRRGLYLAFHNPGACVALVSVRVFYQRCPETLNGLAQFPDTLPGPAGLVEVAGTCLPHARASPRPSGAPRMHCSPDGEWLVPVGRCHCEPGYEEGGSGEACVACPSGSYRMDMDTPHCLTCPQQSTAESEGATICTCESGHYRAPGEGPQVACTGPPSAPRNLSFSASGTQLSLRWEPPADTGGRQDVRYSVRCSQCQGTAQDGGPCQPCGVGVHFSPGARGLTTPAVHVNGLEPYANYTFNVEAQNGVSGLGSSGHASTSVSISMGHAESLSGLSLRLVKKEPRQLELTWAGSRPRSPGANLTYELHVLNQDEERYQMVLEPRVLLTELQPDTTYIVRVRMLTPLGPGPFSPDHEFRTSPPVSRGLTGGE
Nature of the data set: SPR homologue panel, EphA1. Particulars: human EphA1, n=1; read-out: KD, no binding up to. As to the method: (§1) The commercial source details of the recombinant proteins used in SPR were as follows: Human proteins: EphA1 (15789-H02H, Sino Biological), EphA3 (644-A3, R&D Systems), EphA6 (5606-A6, R&D Systems), EphA7 (6756-A7, R&D Systems). Mouse proteins: Mouse EphA2 was purchased from R&D Systems (Product number 639-A2). Mouse EphA2-Fc was resuspended as per manufacturer's recommendations and material was passed through a SuperdexS200 column to remove aggregates.
(§2) SPR experiments were performed on a Biacore 8K+ (Cytiva Life Sciences, USA) instrument, with methods matched for both human and mouse EphA2 protein. Protein was captured on to a Cytiva NTA sensor chip (Cytiva Life Sciences), via the expressed His-tag; this was followed by primary amine coupling chemistry to covalently immobilize the protein to the chip at 25°C. Initially the surface was injected with 0.5 mM NiCl2 for 2 minutes, followed by activation of the carboxymethyl dextran surface for 7 minutes using an injection of a 1:1 ratio of 0.4 M 1-ethyl-3-(3-dimethylaminopropyl) carbodiimide hydrochloride (EDC)/0.1 M N-hydroxy succinimide (NHS) at a flow rate of 10 µL/min.
Peptide was prepared in PBS/0.05% Tween 20 with a final DMSO concentration of 0.5%. The top peptide concentration was 100 or 500 nM and 5 further 3-fold dilutions. […]

For the next data set, the target named is T2, Mouse EphA2 (Mus musculus, UniProt Q03145).
T2 construct: Fc; purchased R&D Systems 639-A2
Nature of the data set: SPR binding to mouse EphA2. As to the method:
as §1, §2
Human EphA2 protein was captured to the Ni-NTA surface to a level of 200-300 RU and Mouse EphA2 to 500-800 RU; the residual activated groups were then blocked with a 7 minute injection of 1 M ethanolamine (pH 8.5):HBS-N (1:1). […]

Molecules are shown by their SMILES. Numbered stars: 1 amine (or outer) side, 2 acyl side, 3 side chain; on linkers, the order of the positions; unused ones are H or OH. Bridge positions count the residues as written; N and C are the ends. Square brackets hold non-standard residues; d marks the D form. Peptide text beside a SMILES is read from it. * marks the point of attachment. DOTA = O=C(O)CN1CCN(CC(=O)O)CCN(CC(=O)*)CCN(CC(=O)O)CC1; TATA = O=C(CC[*:1])N1CN(C(=O)CC[*:2])CN(C(=O)CC[*:3])C1; Hyp = O=C(O)[C@@H]1C[C@@H](O)CN1; hArg = N=C(N)NCCCC[C@H](N)C(=O)O; Cba = N[C@@H](CC1CCC1)C(=O)O; βAla = NCCC(=O)O; Sar = CNCC(=O)O

T2 sequence (Q03145 with tags, fused parts or gaps limits assumed): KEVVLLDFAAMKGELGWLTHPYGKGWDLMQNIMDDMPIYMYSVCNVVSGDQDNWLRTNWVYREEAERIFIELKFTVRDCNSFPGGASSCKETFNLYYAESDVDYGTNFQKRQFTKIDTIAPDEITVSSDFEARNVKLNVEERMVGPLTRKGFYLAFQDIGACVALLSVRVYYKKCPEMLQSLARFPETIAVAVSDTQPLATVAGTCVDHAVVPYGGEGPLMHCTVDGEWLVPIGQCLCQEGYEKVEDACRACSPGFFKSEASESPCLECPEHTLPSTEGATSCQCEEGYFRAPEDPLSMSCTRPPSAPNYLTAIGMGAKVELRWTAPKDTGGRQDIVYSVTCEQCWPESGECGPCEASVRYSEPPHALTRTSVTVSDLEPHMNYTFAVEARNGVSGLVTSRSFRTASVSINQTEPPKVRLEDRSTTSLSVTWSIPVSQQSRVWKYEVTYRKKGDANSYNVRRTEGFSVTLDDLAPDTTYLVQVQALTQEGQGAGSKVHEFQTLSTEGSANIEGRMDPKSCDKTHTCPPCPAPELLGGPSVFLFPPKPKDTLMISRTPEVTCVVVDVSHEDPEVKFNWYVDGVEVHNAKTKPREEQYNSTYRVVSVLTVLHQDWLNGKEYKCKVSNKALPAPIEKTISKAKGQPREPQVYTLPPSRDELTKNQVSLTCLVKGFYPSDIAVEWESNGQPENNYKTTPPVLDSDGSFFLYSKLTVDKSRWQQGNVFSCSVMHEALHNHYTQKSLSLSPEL
Sequence of Human EphA4 (P54764 20-986): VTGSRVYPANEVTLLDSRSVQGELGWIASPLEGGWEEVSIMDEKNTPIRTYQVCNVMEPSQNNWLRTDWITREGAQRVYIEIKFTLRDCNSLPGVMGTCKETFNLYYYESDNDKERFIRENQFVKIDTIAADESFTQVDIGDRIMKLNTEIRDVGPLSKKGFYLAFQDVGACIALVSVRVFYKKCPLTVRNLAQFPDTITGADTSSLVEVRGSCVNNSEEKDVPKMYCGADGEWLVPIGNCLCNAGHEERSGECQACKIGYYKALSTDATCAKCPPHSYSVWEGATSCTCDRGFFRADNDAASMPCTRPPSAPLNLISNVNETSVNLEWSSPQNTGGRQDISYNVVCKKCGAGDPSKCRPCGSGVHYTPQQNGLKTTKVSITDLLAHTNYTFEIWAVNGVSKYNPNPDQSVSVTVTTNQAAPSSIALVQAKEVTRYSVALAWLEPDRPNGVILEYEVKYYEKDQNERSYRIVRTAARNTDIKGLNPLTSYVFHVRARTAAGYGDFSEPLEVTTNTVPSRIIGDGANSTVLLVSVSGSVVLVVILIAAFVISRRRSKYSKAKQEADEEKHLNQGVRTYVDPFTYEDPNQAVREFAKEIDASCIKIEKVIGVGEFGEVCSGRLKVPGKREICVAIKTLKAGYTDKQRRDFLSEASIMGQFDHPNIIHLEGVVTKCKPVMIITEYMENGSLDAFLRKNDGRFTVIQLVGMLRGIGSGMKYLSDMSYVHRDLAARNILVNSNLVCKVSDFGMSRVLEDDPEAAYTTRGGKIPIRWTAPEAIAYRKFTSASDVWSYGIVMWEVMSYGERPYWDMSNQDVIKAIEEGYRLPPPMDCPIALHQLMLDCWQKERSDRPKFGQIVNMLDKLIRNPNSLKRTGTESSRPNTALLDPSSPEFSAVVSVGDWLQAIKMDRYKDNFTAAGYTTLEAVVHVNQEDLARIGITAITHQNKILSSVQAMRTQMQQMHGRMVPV
Description for in vivo: as §3

On to `CC(C)C[C@@H]1NC(=O)[C@@H]2CSCCC(=O)N3CN(CN(C3)C(=O)CCSC[C@H](NC(=O)[C@H](CC(=O)O)NC(=O)[C@H](CCCCNC(=N)N)NC(=O)[C@H](C)NC(=O)CN(C)C(=O)CN(C)C(=O)CN(C)C(=O)CN(C)C(=O)CN(C)C(=O)CN(C)C(=O)CN(C)C(=O)CN(C)C(=O)CN(C)C(=O)CN(C)C(=O)CCNC(=O)CN3CCN(CC(=O)O)CCN(CC(=O)O)CCN(CC(=O)O)CC3)C(=O)N3C[C@H](O)C[C@H]3C(=O)N[C@@H](CC3CCC3)C(=O)N[C@@H](C(C)C)C(=O)N[C@@H](CC(N)=O)C(=O)N3CCC[C@H]3C(=O)N[C@@H](CC(C)C)C(=O)N2)C(=O)CCSC[C@@H](C(N)=O)NC(=O)[C@H](CCCCNC(=N)N)NC(=O)[C@H](Cc2c[nH]c3ccccc23)NC(=O)[C@@H](CC(=O)O)NC(=O)[C@@H]2CCCN2C(=O)[C@H](Cc2c[nH]cn2)NC1=O` [BCY18469, [-DOTA]-[B-Ala]-[Sar10]-Ala-[HArg]-Asp-Cys-[HyP]-[Cba]-Val-Asn-Pro-Leu-Cys-Leu-His-Pro-[dAsp]-Trp-[HArg]-Cys-CONH2] ({DOTA-βAla}-[Sar][Sar][Sar][Sar][Sar][Sar][Sar][Sar][Sar][Sar]A[hArg]DC[Hyp][Cba]VNPLCLHP[dD]W[hArg]C-NH2; linker 14-21-28 via TATA), for which, in “in vitro” (human, Plasma protein binding (% bound peptide)), the fraction unbound (commonly the share of the substance not bound to proteins or other matrix) at 15 min was 0.567. The molecule also gave a fraction unbound at 15 min in “in vitro” (mouse) of 0.489. For the same molecule, in the data set “in vivo”, the AUC(0-inf) – broadly, the area under the concentration-time curve extrapolated to infinity – stood at 701 ng·h/mL; the AUC(0-t) (commonly exposure summed from dosing to a finite time, without extrapolation to infinity) came to 700 ng·h/mL; the Cmax – broadly, the maximum level reached in the sampled fluid or tissue – was found to be 3320 ng/mL; the Vd (in general, the apparent volume that relates the amount in the body to the concentration in plasma or blood) came to 0.39 L/kg. For the same molecule, the half-life (as a rule, the time in which the quantity being followed falls by half) in “in vivo” is 14.4 min. Moreover, the clearance (usually a measure of how efficiently the substance is removed, as volume per time) in the data set “in vivo” (CLp) turned out to be 23.9 mL/min/kg. In addition, on Human EphA4, the Kd – broadly, the equilibrium constant for the complex coming apart – was greater than 5 µM. In data set [1], the CLp came to 24 mL/min/kg. Also, at Human EphA1, the Kd is greater than 5 µM. On Mouse EphA2 (mouse EphA2, 25°C), this molecule displayed a Kd of 0.00382 ± 0.00056 µM. For the same molecule, the kon on Mouse EphA2 (mouse EphA2, n=2, read-out: ka) turned out to be 419000 M⁻¹ s⁻¹.

These data come from article PMC11373624, “Development and preclinical characterization of a novel radiotheranostic EphA2-targeting bicyclic peptide” (Theranostics, 2024).
